Laboratory results as given in patent US20080103158A1, “METHODS FOR TREATING DELAYING THE PROGRESSION OF ALZHEIMER'S DISEASE WITH HETEROCYCLIC COMPOUNDS” (ZENYAKU KOGYO KABUSHIKI KAISHA, priority 2006, published 2008).

Row | SMILES | melting point
1 | O=C1N=C2C=CC=CN2C1(Cc1ccc([N+](=O)[O-])cc1)Cc1ccc([N+](=O)[O-])cc1 | > 300 °C
2 | CC1=CC=CN2C1=NC(=O)C2(Cc1ccncc1)Cc1ccncc1 [Compound 16, 8-methyl-3,3-bis(4-pyridylmethyl)imidazo[1,2-a]pyridin-2(3H)-one] | 228 to 230 °C
3 | O=C1N=C2C=CC=CN2C1(Cc1ccc(F)cc1)Cc1ccc(F)cc1 [Compound 17, 3,3-bis(4-fluorobenzyl)imidazo[1,2-a]pyridin-2(3H)-one] | 290 to 292 °C
4 | CN(C)c1ccc(CC2(Cc3ccc(N(C)C)cc3)C(=O)N=C3C=CC=CN32)cc1 [Compound 18, 3,3-bis(4-dimethylaminobenzyl)imidazo[1,2-a]pyridin-2(3H)-one] | > 300 °C
5 | COc1ccc(CC2(Cc3ccc(OC)cc3)C(=O)N=C3C=CC=CN32)cc1 [Compound 20, 3,3-bis(4-methoxybenzyl)imidazo[1,2-a]pyridin-2(3H)-one] | 248 to 251 °C
6 | N#Cc1ccc(CC2(Cc3ccc(C#N)cc3)C(=O)N=C3C=CC=CN32)cc1 [Compound 22, 3,3-bis(4-cyanobenzyl)imidazo[1,2-a]pyridin-2(3H)-one] | 294 °C (dec.)
7 | C=CCC1(CC=C)C(=O)N=C2C=CC=CN21 [Compound 24, 3,3-diallylimidazo[1,2-a]pyridin-2(3H)-one] | 64 to 66 °C
8 | O=C1N=C2C=CC=CN2C12Cc1cccc3cccc(c13)C2 [Compound 27, spiro[imidazo[1,2-a]pyridin-2(3H)-one-3,2′-[2,3]dihydrophenarene]] | 262 °C (dec.)
9 | O=C1N=C2C=CC=CN2C1(Cc1ccc(F)cc1F)Cc1ccc(F)cc1F [Compound 28, 3,3-bis(2,4-difluorobenzyl)imidazo[1,2-a]pyridin-2(3H)-one] | 269 to 271 °C
10 | CCCC1(CCC)C(=O)N=C2C=CC=CN21 [Compound 29, 3,3-dipropylimidazo[1,2-a]pyridin-2(3H)-one] | 73 to 75 °C
11 | O=C1N=C2C=CC=CN2C1(Cc1cccs1)Cc1cccs1 [Compound 30, 3,3-bis(2-thienylmethyl)imidazo[1,2-a]pyridin-2(3H)-one] | 289.5 °C (dec.)
12 | O=C1N=C2C=CC=CN2C1(Cc1ccco1)Cc1ccco1 [Compound 32, 3,3-bis(2-furylmethyl)imidazo[1,2-a]pyridin-2(3H)-one] | 205 °C (dec.)
13 | CC1(C)C(=O)N=C2C=CC=CN21 [Compound 33, 3,3-dimethylimidazo[1,2-a]pyridin-2(3H)-one] | 200 to 202 °C
14 | CCCCC1(CCCC)C(=O)N=C2C=CC=CN21 [Compound 34, 3,3-dibutylimidazo[1,2-a]pyridin-2(3H)-one] | 100.5 to 102 °C
15 | C#CCC1(CC#C)C(=O)N=C2C=CC=CN21 [Compound 35, 3,3-di(2-propinyl)imidazo[1,2-a]pyridin-2(3H)-one] | 172 to 175 °C
16 | COC(=O)c1ccc(CC2(Cc3ccc(C(=O)OC)cc3)C(=O)N=C3C=CC=CN32)cc1 [Compound 40, 3,3-bis(4-methoxycarbonylbenzyl)imidazo[1,2-a]pyridin-2(3H)-one] | 289 to 290 °C
17 | Cc1ccc(CC2(Cc3ccc(C)cc3)C(=O)N=C3SC=CN32)cc1 [Compound 46, 5,5-bis(4-methylbenzyl)imidazo[2,1-b]thiazol-6(5H)-one] | > 300 °C
18 | N#Cc1ccc(CC2(Cc3ccc(C#N)cc3)C(=O)N=C3SC=CN32)cc1 [Compound 47, 5,5-bis(4-cyanobenzyl)imidazo[2,1-b]thiazol-6(5H)-one] | 264 to 267 °C
19 | O=C1N=C2SC=CN2C1(Cc1cccs1)Cc1cccs1 [Compound 49, 5,5-bis(2-thienylmethyl)imidazo[2,1-b]thiazol-6(5H)-one] | 286 °C (dec.)
20 | O=C1N=C2N=CC=CN2C1(Cc1cccs1)Cc1cccs1 [Compound 50, 3,3-bis(2-thienylmethyl)imidazo[1,2-a]pyrimidin-2(3H)-one] | 192 °C (dec.)
21 | Oc1nc2ccccn2c1Cc1ccc2ccccc2c1 [Compound 52, 2-hydroxy-3-(2-naphthylmethyl)imidazo[1,2-a]pyridine] | 205 °C (dec.)
22 | O=C1N=C2C=CC=CN2C12Cc1cc3ccccc3cc1C2 [Compound 53, spiro[imidazo[1,2-a]pyridin-2(3H)-one-3,2′-benzo[f]indan]] | 214 °C (dec.)
23 | O=C1N=C2C=CC=CN2C1Cc1ccccc1 (centres unmarked) [Compound 54, 3-benzylimidazo[1,2-a]pyridin-2(3H)-one] | 182 °C (dec.)
24 | C/C=C/CC1(C/C=C/C)C(=O)N=C2N=CC=CN21 [Compound 55, 3,3-di(2-butenyl)imidazo[1,2-a]pyrimidin-2(3H)-one] | 149.5 °C (dec.)
25 | O=C1N=C2C=CC=CN2C12Cc1cccc(F)c1C2 (centres unmarked) [Compound 56, spiro[imidazo[1,2-a]pyridin-2(3H)-one-3,2′-(4′-fluoroindan)]] | 148 °C (dec.)
26 | COc1ccc2c(c1)CC1(C2)C(=O)N=C2C=CC=CN21 (centres unmarked) [Compound 57, spiro[imidazo[1,2-a]pyridin-2(3H)-one-3,2′-(5′-methoxyindan)]] | 150 to 152 °C

Further lines, results first:

Row | melting point | SMILES
27 | 247 to 248 °C | CC(C)OC1=CC=CN2C1=NC(=O)C2(Cc1ccccc1)Cc1ccccc1 [Compound 2, 3,3-dibenzyl-8-isopropoxyimidazo[1,2-a]pyridin-2(3H)-one]
28 | 274 to 275 °C | COC1=CC=CN2C1=NC(=O)C2(Cc1ccccc1)Cc1ccccc1 [Compound 3, 3,3-dibenzyl-8-methoxyimidazo[1,2-a]pyridin-2(3H)-one]
29 | 236 to 237 °C | O=C1N=C2C(OCC3CC3)=CC=CN2C1(Cc1ccccc1)Cc1ccccc1 [Compound 4, 3,3-dibenzyl-8-cyclopropylmethyloxy-imidazo[1,2-a]pyridin-2(3H)-one]
30 | 246 to 248 °C | O=C1N=C2C=CC(Cl)=CN2C1(Cc1ccccc1)Cc1ccccc1 [Compound 5, 3,3-dibenzyl-6-chloroimidazo[1,2-a]pyridin-2(3H)-one]
31 | 214 to 215 °C | C=CCOC1=CC=CN2C1=NC(=O)C2(Cc1ccccc1)Cc1ccccc1 [Compound 6, 8-allyloxy-3,3-dibenzylimidazo[1,2-a]pyridin-2(3H)-one]
32 | 240 to 241 °C | O=C1N=C2C(OCc3ccccc3)=CC=CN2C1(Cc1ccccc1)Cc1ccccc1 [Compound 7, 3,3-dibenzyl-8-benzyloxyimidazo[1,2-a]pyridin-2(3H)-one]
33 | 234 to 235 °C | CC(c1ccccc1)C1(C(C)c2ccccc2)C(=O)N=C2C(OCc3ccccc3)=CC=CN21 (centres unmarked) [Compound 8, 8-benzyloxy-3,3-bis(1-phenylethyl)imidazo[1,2-a]pyridin-2(3H)-one]
34 | 237 to 238 °C | CC1=CC2=NC(=O)C(Cc3ccccc3)(Cc3ccccc3)N2C(C)=C1 [Compound 10, 3,3-dibenzyl-5,7-dimethylimidazo[1,2-a]pyridin-2(3H)-one]
35 | 268 to 269 °C | O=C1N=C2C(OC3CCCC3)=CC=CN2C1(Cc1ccccc1)Cc1ccccc1 [Compound 12, 3,3-dibenzyl-8-cyclopentyloxyimidazo[1,2-a]pyridin-2(3H)-one]
36 | 260 to 261 °C | O=C1N=C2C(Cl)=CC(Cl)=CN2C1(Cc1ccccc1)Cc1ccccc1 [Compound 13, 3,3-dibenzyl-6,8-dichloroimidazo[1,2-a]pyridin-2(3H)-one]
37 | 234 to 236 °C | O=C1N=C2C(Cl)=CC(C(F)(F)F)=CN2C1(Cc1ccccc1)Cc1ccccc1 [Compound 14, 3,3-dibenzyl-8-chloro-6-trifluoromethylimidazo[1,2-a]pyridin-2(3H)-one]
38 | 271 to 272 °C | O=C1N=C2C=CC=CN2C1(Cc1cccc(Cl)c1)Cc1cccc(Cl)c1 [Compound 19, 3,3-bis(3-chlorobenzyl)imidazo[1,2-a]pyridin-2(3H)-one]
39 | > 300 °C | O=C1N=C2C=CC=CN2C1(Cc1ccc(-c2ccccc2)cc1)Cc1ccc(-c2ccccc2)cc1 [Compound 21, 3,3-bis(4-biphenylmethyl)imidazo[1,2-a]pyridin-2(3H)-one]
40 | 276.5 to 277.5 °C | O=C1N=C2C=CC=CN2C1(Cc1ccc(O)cc1)Cc1ccc(O)cc1 [Compound 23, 3,3-bis(4-hydroxybenzyl)imidazo[1,2-a]pyridin-2(3H)-one]
41 | 160 to 162 °C | C=CCC1(CC=C)C(=O)N=C2C(OCc3ccccc3)=CC=CN21 [Compound 25, 3,3-diallyl-8-benzyloxyimidazo[1,2-a]pyridin-2(3H)-one]
42 | 227 to 228 °C | O=C1N=C2C=CC=CN2C1(CCCc1ccccc1)CCCc1ccccc1 [Compound 26, 3,3-bis(3-phenyl-1-propyl)imidazo[1,2-a]pyridin-2(3H)-one]
43 | 235 to 237 °C | CC(=O)NC1=CC=CN2C1=NC(=O)C2(Cc1ccccc1)Cc1ccccc1 [Compound 31, 8-acetylamino-3,3-dibenzylimidazo[1,2-a]pyridin-2(3H)-one]
44 | 283 to 285 °C | O=C1N=C2C(O)=CC=CN2C1(Cc1ccccc1)Cc1ccccc1 [Compound 36, 3,3-dibenzyl-8-hydroxyimidazo[1,2-a]pyridin-2(3H)-one]
45 | 250 °C | O=C1N=C2C(NCc3ccccc3)=CC=CN2C1(Cc1ccccc1)Cc1ccccc1 [Compound 37, 3,3-dibenzyl-8-benzylaminoimidazo[1,2-a]pyridin-2(3H)-one]
46 | 283 to 285 °C | NC1=CC=CN2C1=NC(=O)C2(Cc1ccccc1)Cc1ccccc1 [Compound 39, 8-amino-3,3-dibenzylimidazo[1,2-a]pyridin-2(3H)-one]
47 | > 300 °C | O=C1N=C2SC=CN2C1(Cc1ccccc1)Cc1ccccc1 [Compound 44, 5,5-dibenzylimidazo[2,1-b]thiazol-6(5H)-one]
48 | > 300 °C | O=C1N=C2N=CC=CN2C1(Cc1ccccc1)Cc1ccccc1 [Compound 45, 3,3-dibenzylimidazo[1,2-a]pyrimidin-2(3H)-one]
49 | > 300 °C | CC1=CN2C(=NC(=O)C2(Cc2ccccc2)Cc2ccccc2)S1 [Compound 48, 5,5-dibenzyl-2-methylimidazo[2,1-b]thiazol-6(5H)-one]
50 | 233 to 236 °C | O=C1N=C2SCCN2C1(Cc1ccccc1)Cc1ccccc1 [Compound 51, 5,5-dibenzyl-2,3-dihydroimidazo[2,1-b]thiazol-6(5H)-one]
